Laboratory results published in ChEMBL document CHEMBL4831528, “Discovery of Novel Pterostilbene-Based Derivatives as Potent and Orally Active NLRP3 Inflammasome Inhibitors with Inflammatory Activity for Colitis” (J Med Chem, 2021).

Columns and labels:
[1] = target: NACHT, LRR and PYD domains-containing protein 3 (Mus musculus, UniProt Q8R4B8); test: Inhibition of NLRP3 inflammasome activation in LPS-stimulated mouse bone marrow-derived macrophages assessed as reduction in IL-1beta secretion preincubated for 30 mins followed by nigericin addition and measured after 30 mins by ELISA; assay type: tissue-based, Macrophage
[2] = target: NACHT, LRR and PYD domains-containing protein 3 (Mus musculus) (UniProt Q8R4B8); test: (§1) Inhibition of NLRP3 inflammasome activation in LPS-stimulated mouse J774A.1 cells assessed as inhibition of cell pyrolysis at 20 uM incubated for 1 hr followed by ATP addition and measured after 30 mins by Hoechst 33342/propidium iodide staining based high content screening method relative to control; conditions: J774.A1, time 1.5 hrs
[3] = system: L02; test: Cytotoxicity against human L-02 cells incubated for 24 hrs by MTT assay; assay type: cell-based; conditions: L02, 24 h
[4] = target: NACHT, LRR and PYD domains-containing protein 3 (Mus musculus) (UniProt Q8R4B8); test: as §1, with “10” for “20”; conditions: J774.A1, time 1.5 hrs

NACHT, LRR and PYD domains-containing protein 3, sequence (Q8R4B8 whole entry, the tested form may be a part): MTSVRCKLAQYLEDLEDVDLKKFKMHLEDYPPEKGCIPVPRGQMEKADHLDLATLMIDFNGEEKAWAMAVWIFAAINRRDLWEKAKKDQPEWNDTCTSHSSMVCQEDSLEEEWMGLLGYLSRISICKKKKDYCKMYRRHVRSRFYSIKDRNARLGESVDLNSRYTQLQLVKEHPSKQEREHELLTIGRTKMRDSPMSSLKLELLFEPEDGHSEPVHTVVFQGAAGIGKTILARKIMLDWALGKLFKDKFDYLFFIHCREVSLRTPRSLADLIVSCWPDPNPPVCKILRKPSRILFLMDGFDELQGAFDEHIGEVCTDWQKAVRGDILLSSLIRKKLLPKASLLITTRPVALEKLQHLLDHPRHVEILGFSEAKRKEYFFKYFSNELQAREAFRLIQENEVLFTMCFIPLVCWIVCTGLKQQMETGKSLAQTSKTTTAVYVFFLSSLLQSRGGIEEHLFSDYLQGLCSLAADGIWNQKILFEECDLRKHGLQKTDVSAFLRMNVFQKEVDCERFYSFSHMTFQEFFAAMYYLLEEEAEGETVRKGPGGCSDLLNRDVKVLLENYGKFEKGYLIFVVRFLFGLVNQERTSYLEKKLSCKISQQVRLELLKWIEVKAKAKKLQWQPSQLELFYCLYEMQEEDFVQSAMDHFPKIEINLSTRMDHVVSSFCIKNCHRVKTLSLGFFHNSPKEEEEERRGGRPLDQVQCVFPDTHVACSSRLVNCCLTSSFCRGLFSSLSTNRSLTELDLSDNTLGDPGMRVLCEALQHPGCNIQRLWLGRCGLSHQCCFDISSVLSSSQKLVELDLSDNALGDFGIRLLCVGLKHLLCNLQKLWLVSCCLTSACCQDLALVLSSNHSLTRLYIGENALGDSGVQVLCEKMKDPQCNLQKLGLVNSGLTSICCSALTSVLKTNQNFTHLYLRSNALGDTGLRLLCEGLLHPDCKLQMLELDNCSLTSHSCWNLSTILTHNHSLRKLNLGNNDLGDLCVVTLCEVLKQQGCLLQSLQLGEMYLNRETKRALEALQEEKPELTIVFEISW
NACHT, LRR and PYD domains-containing protein 3 (Mus musculus), sequence (Q8R4B8 whole entry, the tested form may be a part): as above

IC50 [1] [µM] | inhibition [2] [%] | inhibition [4] [%] | SMILES | IC50 [3] [µM]
> 10 | 8.51 | 6.32 | COc1cc(/C=C/c2ccc(OCc3ccc(C(F)(F)F)cc3)cc2)cc(OC)c1 | > 100
7.68 | 65.4 | 45.3 | COc1cc(/C=C/c2ccc(OCC(=O)NCc3ccncc3)cc2)c(/C=C/[N+](=O)[O-])c(OC)c1 | 63
 | 40.2 | 34.6 | COCCOc1ccc(/C=C/c2cc(OC)cc(OC)c2/C=C/[N+](=O)[O-])cc1 | > 100
 |  | 9.89 | COc1cc(/C=C/c2ccc(NC(=O)CC(C)(C)C)cc2)c(/C=C/[N+](=O)[O-])c(OC)c1 | > 100
9.68 | 34.9 | 24 | COc1cc(/C=C/c2ccc(OCC(=O)NCc3ccc(Br)cc3)cc2)c(/C=C/[N+](=O)[O-])c(OC)c1 | > 100
 |  | 41 | CCCC(C)C(=O)Nc1ccc(/C=C/c2cc(OC)cc(OC)c2/C=C/[N+](=O)[O-])cc1 (stereo unspecified) | > 100
 | 41.8 | 25.6 | COc1cc(/C=C/c2ccc(OCC(=O)NC3CCCCC3)cc2)c(/C=C/[N+](=O)[O-])c(OC)c1 | > 100
 | 31.9 | 24.1 | COc1cc(/C=C/c2ccc(OCC(=O)NCc3ccc(C)cc3)cc2)c(/C=C/[N+](=O)[O-])c(OC)c1 | > 100
 | 23.7 | 17.9 | COc1cc(/C=C/c2ccc(OCc3ccc(C(F)(F)F)cc3)cc2)c(/C=C/[N+](=O)[O-])c(OC)c1 | > 100
 | 23.1 | 11.8 | COc1ccc(CNC(=O)COc2ccc(/C=C/c3cc(OC)cc(OC)c3/C=C/[N+](=O)[O-])cc2)cc1 | > 100
 | 20.2 | 17.1 | COCCCOc1ccc(/C=C/c2cc(OC)cc(OC)c2)cc1 | > 100
 |  | 56.2 | COc1cc(/C=C/c2ccc(NC(C)=O)cc2)c(/C=C/[N+](=O)[O-])c(OC)c1 | > 100
 | 40.1 | 22.1 | COc1cc(/C=C/c2ccc(OCC(=O)Nc3ccc(Cl)cc3)cc2)c(/C=C/[N+](=O)[O-])c(OC)c1 | > 100
> 10 |  | 28.7 | COc1cc(/C=C/c2ccc(NC(=O)C3CCCCC3)cc2)c(/C=C/[N+](=O)[O-])c(OC)c1 | > 100
 | 49.6 | 40.7 | COc1cc(/C=C/c2ccc(OCC(=O)Nc3ccc(F)cc3)cc2)c(/C=C/[N+](=O)[O-])c(OC)c1 | > 100
0.76 |  | 70.5 | COc1cc(/C=C/c2ccc(NC(=O)CCCl)cc2)c(/C=C/[N+](=O)[O-])c(OC)c1 | > 100
 |  | 60 | COCC(=O)Nc1ccc(/C=C/c2cc(OC)cc(OC)c2/C=C/[N+](=O)[O-])cc1 | > 100
 |  |  | C=CCCCOc1ccc(/C=C/c2cc(OC)cc(OC)c2-c2cnn[nH]2)cc1 | > 100
 |  | 61 | COc1cc(/C=C/c2ccc(NC(=O)COC(C)=O)cc2)c(/C=C/[N+](=O)[O-])c(OC)c1 | 58.7
 | 15.1 | 12.9 | COc1ccc(NC(=O)COc2ccc(/C=C/c3cc(OC)cc(OC)c3/C=C/[N+](=O)[O-])cc2)cc1 | > 100
 | 53.7 | 43.2 | COCCCOc1ccc(/C=C/c2cc(OC)cc(OC)c2/C=C/[N+](=O)[O-])cc1 | > 100
 | 42.3 | 33 | COc1cc(/C=C/c2ccc(OCC(=O)NC3CCN(C(=O)OC(C)(C)C)CC3)cc2)c(/C=C/[N+](=O)[O-])c(OC)c1 | > 100
 |  | 24 | COc1cc(/C=C/c2ccc(NC(=O)OC(C)(C)C)cc2)c(/C=C/[N+](=O)[O-])c(OC)c1 | > 100

IC50 [1] [µM] | inhibition [2] [%] | inhibition [4] [%] | SMILES | IC50 [3] [µM]
 |  | 69 | COc1cc(/C=C/c2ccc(NC(=O)C(C)C)cc2)c(/C=C/[N+](=O)[O-])c(OC)c1 | > 100
 | 26.9 | 11.3 | COCCOc1ccc(/C=C/c2cc(OC)cc(OC)c2-c2cnn[nH]2)cc1 | 94.5
 | 32.3 | 25.7 | COCCOc1ccc(/C=C/c2cc(OC)cc(OC)c2)cc1 | > 100
 | 15.4 | 9.65 | COc1cc(/C=C/c2ccc(OCC(=O)NCc3ccccc3)cc2)cc(OC)c1 | > 100
 |  | 71.2 | C=CC(=O)Nc1ccc(/C=C/c2cc(OC)cc(OC)c2/C=C/[N+](=O)[O-])cc1 | > 100
 |  | 45.7 | COc1cc(/C=C/c2ccc(NC(=O)C3CCCC3)cc2)c(/C=C/[N+](=O)[O-])c(OC)c1 | > 100
 | 25.3 | 15.3 | COc1cc(/C=C/c2ccc(OCC(=O)NCC3CCOCC3)cc2)c(/C=C/[N+](=O)[O-])c(OC)c1 | > 100
 |  | 60.7 | C/C=C/C(=O)Nc1ccc(/C=C/c2cc(OC)cc(OC)c2/C=C/[N+](=O)[O-])cc1 | > 100
 | 59.9 | 34.4 | COc1cc(/C=C/c2ccc(OCC(=O)NCc3ccc(C#N)cc3)cc2)c(/C=C/[N+](=O)[O-])c(OC)c1 | > 100
 | 33.5 | 26.8 | C=CCCCOc1ccc(/C=C/c2cc(OC)cc(OC)c2/C=C/[N+](=O)[O-])cc1 | > 100
 | 57.9 | 27.9 | COc1cc(/C=C/c2ccc(OCC(=O)NCc3ccccc3)cc2)c(/C=C/[N+](=O)[O-])c(OC)c1 | > 100
 |  | 50.7 | CCC(=O)Nc1ccc(/C=C/c2cc(OC)cc(OC)c2/C=C/[N+](=O)[O-])cc1 | > 100
 |  | 36 | CCCCC(=O)Nc1ccc(/C=C/c2cc(OC)cc(OC)c2/C=C/[N+](=O)[O-])cc1 | > 100
 | 3.25 |  | COc1cc(/C=C/c2ccc(OCc3ccc(C(F)(F)F)cc3)cc2)c(-c2cnn[nH]2)c(OC)c1 | > 100
 | 26.2 | 9.56 | COc1cc(/C=C/c2ccc(OCC(=O)Nc3ccc(Br)cc3)cc2)c(/C=C/[N+](=O)[O-])c(OC)c1 | > 100
1.41 |  | 55.6 | COc1cc(/C=C/c2ccc(NC(=O)C3CCC3)cc2)c(/C=C/[N+](=O)[O-])c(OC)c1 | > 100
 | 49.6 | 30.7 | COc1cc(/C=C/c2ccc(OCC(=O)NCc3ccc(Cl)cc3)cc2)c(/C=C/[N+](=O)[O-])c(OC)c1 | > 100
 |  | 90 | COc1cc(/C=C/c2ccc(NC(=O)CCl)cc2)c(/C=C/[N+](=O)[O-])c(OC)c1 | 42.6
 | 46.2 | 26.2 | COc1cc(/C=C/c2ccc(OCC(=O)NCCc3ccccc3)cc2)c(/C=C/[N+](=O)[O-])c(OC)c1 | > 100
 |  | 48.9 | CCCC(=O)Nc1ccc(/C=C/c2cc(OC)cc(OC)c2/C=C/[N+](=O)[O-])cc1 | > 100
 | 12.1 | 11.1 | C=CCCCOc1ccc(/C=C/c2cc(OC)cc(OC)c2)cc1 | > 100
 | 39.8 | 20.1 | COc1cc(NC(=O)COc2ccc(/C=C/c3cc(OC)cc(OC)c3/C=C/[N+](=O)[O-])cc2)cc(OC)c1 | > 100
